According to patent publication US20080207677A1, “Napthyridine Compounds As Rock Inhibitors” (GPC BIOTECH AG, priority 2004, published 2008):
pIC50: −log10 of the molar value.

Legend:
[1] = molecular target: T1, recombinant human ROCK2 (amino acids 1-530, aminoterminal 6×His tag) (Homo sapiens, UniProt O75116); experiment: Determination of ROCK kinase activity, IMAP assay, ROCK2 human; type: biochemical; details: for pIC50: in vitro kinase assay, ATP 34.8 μM; for inhibition at 10 µM: % inhibition of the protein kinase ROCK2 at a concentration of 10 μM
T1 construct: recombinant human ROCK2 (amino acids 1-530, aminoterminal 6×His tag); 6xHis (N)
T1 sequence (O75116 1-530): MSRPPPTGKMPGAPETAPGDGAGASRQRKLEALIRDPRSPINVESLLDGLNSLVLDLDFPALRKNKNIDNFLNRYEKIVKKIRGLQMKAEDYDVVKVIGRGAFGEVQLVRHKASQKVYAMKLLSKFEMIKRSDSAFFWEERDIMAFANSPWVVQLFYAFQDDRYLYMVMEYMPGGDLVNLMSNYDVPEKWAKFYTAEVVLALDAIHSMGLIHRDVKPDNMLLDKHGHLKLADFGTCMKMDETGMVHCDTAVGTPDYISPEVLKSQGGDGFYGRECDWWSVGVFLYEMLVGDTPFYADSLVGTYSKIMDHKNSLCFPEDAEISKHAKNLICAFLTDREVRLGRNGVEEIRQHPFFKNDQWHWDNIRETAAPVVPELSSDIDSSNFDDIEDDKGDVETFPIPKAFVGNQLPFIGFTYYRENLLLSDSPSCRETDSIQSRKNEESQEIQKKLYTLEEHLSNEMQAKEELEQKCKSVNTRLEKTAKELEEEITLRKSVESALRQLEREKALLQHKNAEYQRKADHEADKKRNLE
Procedure: (§1) Determination of ROCK Kinase Activity
(§2) IC50 values for the various compounds were determined with recombinant human ROCK1 (amino acids 1-555, aminoterminal 6×His tag) and recombinant human ROCK2 (amino acids 1-530, aminoterminal 6×His tag) under the following reaction conditions:
• 11) Add 6 μl 8/6 fold concentrated Substrate+8/6 fold concentrated ATP in 1 fold concentrated Reaction Buffer to each well of Assay Plate • 12) Add 10.8 nl 740 fold concentrated Inhibitor in 100% DMSO to each well except to C− and C+ wells using pintool • 13) Add 10.8 nl 100% DMSO to C− and C+ wells using pintool • 14) Add 2 μl Reaction Buffer to C− wells • 15) Add 2 μl 4 fold concentrated Kinase in Reaction Buffer to each well except C− wells • 16) Incubate according to Reaction Time at room temperature • 17) Add 15 μl IMAP Binding Solution to each well • 18) Incubate according to IMAP Incubation Time at room temperature • 19) Measure Fluorescence Polarization • 20) Measure Fluorescence Intensity

[2] = molecular target: T2, recombinant human ROCK1 (amino acids 1-555, aminoterminal 6×His tag) (Homo sapiens, UniProt Q13464); experiment: Determination of ROCK kinase activity, IMAP assay, ROCK1 human; type: biochemical; details: in vitro kinase assay, ATP 38.9 μM
T2 construct: recombinant human ROCK1 (amino acids 1-555, aminoterminal 6×His tag); 6xHis (N)
T2 sequence (Q13464 1-555): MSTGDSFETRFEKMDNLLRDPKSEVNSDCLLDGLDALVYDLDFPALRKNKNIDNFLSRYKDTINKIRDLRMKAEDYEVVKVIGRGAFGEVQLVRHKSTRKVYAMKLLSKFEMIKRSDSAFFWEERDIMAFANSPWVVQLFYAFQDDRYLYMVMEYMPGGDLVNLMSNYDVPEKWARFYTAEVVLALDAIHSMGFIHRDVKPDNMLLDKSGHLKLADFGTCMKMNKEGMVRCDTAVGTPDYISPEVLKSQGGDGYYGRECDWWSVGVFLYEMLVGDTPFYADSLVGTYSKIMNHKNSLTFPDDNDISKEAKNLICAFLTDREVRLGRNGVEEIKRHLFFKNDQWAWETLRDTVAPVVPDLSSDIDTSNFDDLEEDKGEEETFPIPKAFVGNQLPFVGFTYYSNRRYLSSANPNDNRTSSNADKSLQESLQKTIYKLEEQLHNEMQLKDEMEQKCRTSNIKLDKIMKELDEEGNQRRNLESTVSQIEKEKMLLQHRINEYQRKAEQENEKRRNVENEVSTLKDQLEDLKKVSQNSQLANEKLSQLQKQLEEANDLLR
Procedure: as §1, §2
• 1) Add 6 μl 8/6 fold concentrated Substrate+8/6 fold concentrated ATP in 1 fold concentrated Reaction Buffer to each well of Assay Plate • 2) Add 10.8 nl 740 fold concentrated Inhibitor in 100% DMSO to each well except to C− and C+ wells using pintool • 3) Add 10.8 nl 100% DMSO to C− and C+ wells using pintool • 4) Add 2 μl Reaction Buffer to C− wells • 5) Add 2 μl 4 fold concentrated Kinase in Reaction Buffer to each well except C− wells • 6) Incubate according to Reaction Time at room temperature • 7) Add 15 μl IMAP Binding Solution to each well • 8) Incubate according to IMAP Incubation Time at room temperature • 9) Measure Fluorescence Polarization • 10) Measure Fluorescence Intensity

SMILES | pIC50 [1] | pIC50 [2] | inhibition at 10 µM [1]
C[C@@H](NC(=O)c1ccc2cnccc2n1)c1ccc2ccccc2c1 [(R)-[1,6]Naphthyridine-2-carboxylic acid 1-(naphth-2-yl)-ethylamide] | 6.06 | 5.63 | 
CC[C@@H](NC(=O)c1ccc2cnccc2n1)c1ccccc1 [(R)-[1,6]Naphthyridine-2-carboxylic acid 1-phenyl-propylamide] | 6.80 |  | 
NC(=O)[C@H](Cc1ccc(O)cc1)NC(=O)c1ccc2cnccc2n1 [(S)-[1,6]Naphthyridine-2-carboxylic acid [1-carbamoyl-2-(4-hydroxy-phenyl)-ethyl]-amide] | 5.37 | 5.17 | 
O=C(NCc1cccc(Br)c1)c1ccc2cnccc2n1 [Compound 1, [1,6]Naphthyridine-2-carboxylic acid 3-bromo-benzylamide] | 5.98 | 6.04 | 87%
O=C(NCc1ccccc1F)c1ccc2cnccc2n1 [Compound 2, [1,6]Naphthyridine-2-carboxylic acid 2-fluoro-benzylamide] | 5.68 | 6.10 | 
O=C(NCc1ccc(Br)cc1)c1ccc2cnccc2n1 [Compound 3, [1,6]Naphthyridine-2-carboxylic acid 4-bromo-benzylamide] | 5.88 | 5.86 | 
NC(=O)C(Cc1ccccc1)NC(=O)c1ccc2cnccc2n1 (stereo not drawn) [Compound 5, [1,6]Naphthyridine-2-carboxylic acid (1-carbamoyl-2-phenyl-ethyl)-amide] |  |  | 62%
C[C@@H](NC(=O)c1ccc2cnccc2n1)c1ccccc1 [Compound 7, [1,6]Naphthyridine-2-carboxylic acid ((R)-1-phenyl-ethyl)-amide] | 6.04 | 5.95 | 88%
C[C@H](NC(=O)c1ccc2cnccc2n1)c1ccccc1 [Compound 8, [1,6]Naphthyridine-2-carboxylic acid ((S)-1-phenyl-ethyl)-amide] |  |  | 37%
CCC(NC(=O)c1ccc2cnccc2n1)c1ccc(Cl)cc1 (stereo not drawn) [[1,6]Naphthyridine-2-carboxylic acid 1-(4-chlorophenyl)-propylamide] | 6.32 | 5.90 | 
CC(NC(=O)c1ccc2cnccc2n1)c1ccc(F)cc1 (stereo not drawn) [[1,6]Naphthyridine-2-carboxylic acid 1-(4-fluorophenyl)-ethylamide] | 6.47 | 6.03 | 
CCC(NC(=O)c1ccc2cnccc2n1)c1ccc(C)cc1 (stereo not drawn) [[1,6]Naphthyridine-2-carboxylic acid 1-(4-methylphenyl)-propylamide] | 5.90 | 6.10 | 
O=C(NCCc1ccc(Br)cc1)c1ccc2cnccc2n1 [[1,6]Naphthyridine-2-carboxylic acid 2-(4-bromo-phenyl)-ethylamide] | 5.82 | 5.82 | 
O=C(NCc1ccccc1Cl)c1ccc2cnccc2n1 [[1,6]Naphthyridine-2-carboxylic acid 2-chloro-benzylamide] | 5.42 | 5.32 | 
CCOc1ccccc1CNC(=O)c1ccc2cnccc2n1 [[1,6]Naphthyridine-2-carboxylic acid 2-ethoxy-benzylamide] | 4.89 |  | 
COc1cccc(CNC(=O)c2ccc3cnccc3n2)c1 [[1,6]Naphthyridine-2-carboxylic acid 3-methoxy-benzylamide] | 5.51 | 5.48 | 
Cc1ccc(CNC(=O)c2ccc3cnccc3n2)cc1 [[1,6]Naphthyridine-2-carboxylic acid 4-methyl-benzylamide] | 5.65 | 5.89 | 
O=C(NCc1cccs1)c1ccc2cnccc2n1 [[1,6]Naphthyridine-2-carboxylic acid thiophen-2-yl-methylamide] | 5.11 | 5.71 | 

Continued, values first:

pIC50 [1] | pIC50 [2] | inhibition at 10 µM [1] | SMILES
6.44 |  |  | C[C@@H](NC(=O)c1ccc2cnccc2n1)c1ccc(Cl)cc1 [(R)-[1,6]Naphthyridine-2-carboxylic acid 1-(4-chloro-phenyl)-ethylamide]
6.39 |  |  | Cc1ccc([C@@H](C)NC(=O)c2ccc3cnccc3n2)cc1 [(R)-[1,6]Naphthyridine-2-carboxylic acid 1-(4-methylphenyl)-ethylamide]
5.25 | 5.09 |  | NC(=O)[C@H](Cc1ccccc1)NC(=O)c1ccc2cnccc2n1 [(S)-[1,6]Naphthyridine-2-carboxylic acid (1-carbamoyl-2-phenyl-ethyl)-amide]
5.80 | 6.15 | 81% | CC(NC(=O)c1ccc2cnccc2n1)c1ccccc1 (stereo not drawn) [Compound 4, [1,6]Naphthyridine-2-carboxylic acid (1-phenyl-ethyl)-amide]
 |  | 65% | NC(=O)C(Cc1ccc(Cl)cc1)NC(=O)c1ccc2cnccc2n1 (stereo not drawn) [Compound 6, [1,6]Naphthyridine-2-carboxylic acid [1-carbamoyl-2-(4-chloro-phenyl)-ethyl]-amide]
6.42 | 6.52 |  | CCC(NC(=O)c1ccc2cnccc2n1)c1cccc(Cl)c1 (stereo not drawn) [[1,6]Naphthyridine-2-carboxylic acid 1-(3-chlorophenyl)-propylamide]
6.05 | 6.01 |  | CC(NC(=O)c1ccc2cnccc2n1)c1ccc(Br)cc1 (stereo not drawn) [[1,6]Naphthyridine-2-carboxylic acid 1-(4-bromo-phenyl)-ethylamide]
6.11 | 5.96 |  | CC(NC(=O)c1ccc2cnccc2n1)c1ccc(Cl)cc1 (stereo not drawn) [[1,6]Naphthyridine-2-carboxylic acid 1-(4-chlorophenyl)-ethylamide]
4.97 |  |  | COc1ccc(C(C)NC(=O)c2ccc3cnccc3n2)cc1 (stereo not drawn) [[1,6]Naphthyridine-2-carboxylic acid 1-(4-methoxyphenyl)-ethylamide]
5.85 | 5.89 |  | Cc1ccc(C(C)NC(=O)c2ccc3cnccc3n2)cc1 (stereo not drawn) [[1,6]Naphthyridine-2-carboxylic acid 1-(4-methylphenyl)-ethylamide]
6.00 |  |  | CCC(NC(=O)c1ccc2cnccc2n1)c1cccs1 (stereo not drawn) [[1,6]Naphthyridine-2-carboxylic acid 1-(thiophen-2-yl)-propylamide]
5.72 |  |  | CC(NC(=O)c1ccc2cnccc2n1)c1ccsc1 (stereo not drawn) [[1,6]Naphthyridine-2-carboxylic acid 1-(thiophen-3-yl)-ethylamide]
6.30 | 6.18 |  | CCC(NC(=O)c1ccc2cnccc2n1)c1ccccc1 (stereo not drawn) [[1,6]Naphthyridine-2-carboxylic acid 1-phenyl-propylamide]
5.24 | 5.72 |  | O=C(NCCc1ccc(Cl)cc1)c1ccc2cnccc2n1 [[1,6]Naphthyridine-2-carboxylic acid 2-(4-chloro-phenyl)-ethylamide]
5.14 | 5.65 |  | O=C(NCc1ccccc1Br)c1ccc2cnccc2n1 [[1,6]Naphthyridine-2-carboxylic acid 2-bromo-benzylamide]
5.59 | 6.21 |  | O=C(NCc1cccc(Cl)c1)c1ccc2cnccc2n1 [[1,6]Naphthyridine-2-carboxylic acid 3-chloro-benzylamide]
5.68 | 5.69 |  | O=C(NCc1ccc(Cl)cc1)c1ccc2cnccc2n1 [[1,6]Naphthyridine-2-carboxylic acid 4-chloro-benzylamide]
5.29 | 5.22 |  | COc1ccc(CNC(=O)c2ccc3cnccc3n2)cc1 [[1,6]Naphthyridine-2-carboxylic acid 4-methoxy-benzylamide]
5.73 | 5.84 |  | O=C(NCc1ccc2c(c1)OCO2)c1ccc2cnccc2n1 [[1,6]Naphthyridine-2-carboxylic acid (benzo[1,3]dioxol-5-ylmethyl)-amide]
5.11 | 5.50 |  | O=C(NCc1ccccc1)c1ccc2cnccc2n1 [[1,6]Naphthyridine-2-carboxylic acid benzylamide]
